Reference: PMC10714399, “Open Source Antibiotics: Simple Diarylimidazoles Are Potent against Methicillin-Resistant Staphylococcus aureus” (ACS Infectious Diseases, 2023)
In brackets after ≈: the same amount, converted by molar mass. Several values for one entry are separate records, joined by “and”; a condition that tells them apart may be missing. Equal entries are not always repeated. Where two headings read alike, the source gives them in different places. Blank lines part the entries; values can stand above or below the compound they belong to.

How the values were obtained:
[1] = Mouse liver microsome (MLM) metabolic stability (UNC); format: in vitro ADME
Text: Supplement id3c00286_si_002.xlsx, sheet "Series 2 Data" | column: MLM Clint (mL/min/kg) (UNC); MLM t1/2 (min) (UNC); MLM E (UNC)

[2] = Rat liver microsome (RLM) metabolic stability (UNC); format: in vitro ADME; settings: rat liver microsomes
Text: Supplement id3c00286_si_002.xlsx, sheet "Series 2 Data" | column: RLM Clint (mL/min/kg) (UNC); RLM t1/2 (min) (UNC); RLM E (UNC)

[3] = Kinetic solubility estimation using nephelometry (Monash); format: physicochemical; settings: for solubility kinetic at 30 min: kinetic from dmso stock
Description: Compound in DMSO was spiked into either pH 6.5 phosphate buffer or 0.01 M HCl (approximately pH 2.0) with the final DMSO concentration being 1%. […]
b) Kinetic Solubility Estimation using Nephelometry (SolpH)
Compound in DMSO was spiked into either pH 6.5 phosphate buffer or 0.01 M HCl (approx pH 2.0) with the final
DMSO concentration being 1%. After 30 minutes had elapsed, samples were then analysed via Nephelometry to
determine a solubility range. See Bevan and Lloyd (2000) Anal Chem, 72:1781-1787. […]
(§1) In Vitro Intrinsic Clearance […]
(§2) Experimental results are tabulated on the following page(s).
(§3) (1 picture or pasted object on this page, not shown here)

[4] = In vitro metabolic stability, human liver microsomes (Monash); format: in vitro ADME
Description: (§4) The metabolic stability assay was performed by incubating each test compound with a suspension of liver microsomes (0.4 mg/mL protein, 1 μM substrate, 37 °C). Microsomes were purchased from XenoTech. The metabolic reaction was initiated by the addition of an NADPH-regenerating system and quenched at various time points over a 60 min incubation by the addition of acetonitrile containing metolazone as an internal standard. Control samples (containing no NADPH) were included (quenched at 2, 30, and 60 min) to monitor for potential degradation in the absence of cofactor. […]
(§5) d) In Vitro Metabolic Stability
(§6) The metabolic stability assay was performed by incubating each test compound with a suspension of liver
(§7) microsomes (0.4 mg/mL, 37°C). The metabolic reaction was initiated by the addition of an NADPH-regenerating
(§8) system and quenched at various time points over a 60 minute incubation by the addition of acetonitrile containing
(§9) metolazone as internal standard. Control samples (containing no NADPH) were included (quenched at 2, 30 and 60
(§10) minutes) to monitor for potential degradation in the absence of cofactor.
(§11) The human liver microsomes used in this experiment were supplied by XenoTech, lot # 1710084.The rat liver
(§12) microsomes used in this experiment were supplied by XenoTech, lot # 1610290. Microsomal incubations were
(§13) performed at a substrate concentration of 1 µM.
(§14) Data analysis and interpretation:
(§15) Substrate depletion as a function of time was analysed as described by Obach (1999) Drug Metab. Dispos., 27:1350-
(§16) 1359. Intrinsic clearance (CLint) values were classified at the limits of low and high clearance bands based on a
(§17) rearrangement of the well stirred model of hepatic elimination. It should be noted that the potential impact of
(§18) compound binding (either in microsomes or in blood) on the relationship between in vitro intrinsic clearance and
(§19) hepatic clearance in vivo has not been accounted for in these studies.
(§20) In Vitro Intrinsic Clearance
(§21) Species (µL/min/mg protein)
(§22) Low Clearance High Clearance
as §2, §3

[5] = test system: Staphylococcus aureus NCTC 13373 (mecA-positive; methicillin-resistant); experiment: In vitro antibacterial activity, MIC (UCL School of Pharmacy assay), MRSA; format: cell-based; settings: for MIC: Staphylococcus aureus
Method in brief: (§23)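 Broth microdilution MIC in isosensitest broth; inoculum from overnight tryptone soya agar culture suspended in PBS to A600 0.1 (~1 × 10^8 CFU/mL), then diluted 1:100. Compounds tested as 2-fold series from 32 to 0.03 μg/mL, DMSO at most 2%; vancomycin as quality control.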

[6] = Distribution coefficient estimation using chromatography, gLogD (Monash); format: physicochemical
Text: Partition coefficient values (LogD) of the test compounds were estimated at pH 7.4 by the correlation of their chromatographic retention properties against the characteristics of a series of standard compounds with known partition coefficient values. The method employed is a gradient HPLC-based derivation of the method developed by Lombardo.[42] […]
c) Distribution Coefficient Estimation using Chromatography (gLogDpH)
Partition coefficient values (LogD) of the test compounds were estimated at pH 7.4 by correlation of their
chromatographic retention properties against the characteristics of a series of standard compounds with known
partition coefficient values. […]
as §1, §2, §3

[7] = In vitro metabolic stability, rat liver microsomes (Monash); format: in vitro ADME
Description: as §4, §5, §6, §7, §8, §9, §10, §11, §12, §13, §14, §15, §16, §17, §18, §19, §20, §21, §22, §2, §3

[8] = test system: MRC-5SV2 (human lung fibroblast cell line); experiment: Toxicity against MRC-5SV2; format: cell-based; settings: MRC5 cells
Description: (§24) ADME and toxicity for compounds were measured according to procedures outlined in the manuscript submitted in parallel to this one;2 other procedures were used for those compounds analysed by Monash University (in vitro ADME) or UCL (toxicity), both described in the main

[9] = Human plasma protein binding (PPB); format: in vitro ADME; settings: human, plasma, human plasma, NEU; read-out: Human PPB (NEU) (converted)
[10] = LogD7.4 (Chrom Log D); format: physicochemical; settings: chromatographic system (Chrom Log D); pH 7.4, NEU; read-out: LogD 7.4 (NEU)
[11] = Rat hepatocyte intrinsic clearance; format: in vitro ADME; settings: rat hepatocytes, NEU; read-out: Rat Hep CLint (NEU)
[12] = Aqueous solubility; format: physicochemical; settings: thermodynamic from solid; NEU; read-out: Aqueous Solubility (NEU)
[13] = test system: PMM (primary mouse macrophages); experiment: Toxicity against PMM; format: cell-based; settings: PMM
Description: as §24

[14] = test system: Enterococcus faecalis ATCC 51299 (vanA-positive; vancomycin-resistant); experiment: In vitro antibacterial activity, MIC (UCL), VRE; format: cell-based; settings: read-out: VRE MIC (UCL)
Method in brief: as §23

[15] = test system: U2OS; experiment: Toxicity against U2OS; format: cell-based; settings: U2OS cells
Text: Supplement id3c00286_si_002.xlsx, sheet "Series 2 Data" | column: U2OS TC50 (uM)

[16] = Human liver microsome intrinsic clearance; format: in vitro ADME; settings: human liver microsomes, NEU; read-out: HLM CLint (NEU)
[17] = test system: THP1; experiment: Toxicity against THP1; format: cell-based; settings: THP1 cells
Text: Supplement id3c00286_si_002.xlsx, sheet "Series 2 Data" | column: THP1 TC50 (uM)

[18] = test system: p38 kinase; design: method as in earlier work; settings: cited from earlier work
[19] = test system: Acinetobacter baumannii ATCC 19606; experiment: CO-ADD antibacterial assay, A. baumannii; format: cell-based
Description: (§25) Hit Confirmation of active compounds by whole cell growth inhibition assays was conducted as an 8-point dose response to determine the Minimum Inhibitory Concentration (MIC), in duplicate (n=2). The inhibition of growth is measured against those microorganisms that […]
(§26) Included in the Hit Confirmation were 5 bacteria: Escherichia coli, Klebsiella pneumoniae, Acinetobacter baumannii, Pseudomonas aeruginosa and Staphylococcus aureus, and 2 fungi Candida albicans and Cryptococcus neoformans. […]
(§27) Assay Parameters Bacteria Fungi HEK293 Haemolysis […]
(§28) Duplicate (n=2) Duplicate (n=2) Duplicate (n=2) Duplicate (n=2)
(§29) QC Control MIC: Control MIC: Control CC50: Control HC10:
(§30) Non-Binding Non-Binding TC, 384-well Polypropylene […]
(§31) All bacteria were cultured in Cation-adjusted Mueller Hinton broth (CAMHB) at 37 °C overnight. […] The resultant mid-log phase cultures were diluted (CFU/mL measured by OD600), then added to each well of the compound containing plates, giving a cell density of 5×10^5 CFU/mL and a total volume of 50 µL. […]
(§32) Inhibition of bacterial growth was determined measuring absorbance at 600 nm (OD600), using a Tecan M1000 Pro monochromator plate reader. The percentage of growth inhibition was calculated for each well, using the negative control (media only) and positive control (bacteria without inhibitors) on the same plate as references. […]

[20] = test system: Pseudomonas aeruginosa ATCC 27853; experiment: CO-ADD antibacterial assay, P. aeruginosa; format: cell-based
Description: as §25, §26, §27, §28, §29, §30, §31, §32

[21] = test system: Klebsiella pneumoniae ATCC 700603; experiment: CO-ADD antibacterial assay, K. pneumoniae; format: cell-based
Description: as §25, §26, §27, §28, §29, §30, §31, §32

[22] = test system: Escherichia coli ATCC 25922; experiment: CO-ADD antibacterial assay, E. coli; format: cell-based
Description: as §25, §26, §27, §28, §29, §30, §31, §32

[23] = NADPH, read-out: CLint, in vitro

- MLM Clint (UNC) ([1]; mouse liver microsomes): 677 mL/min/kg
- MLM E (UNC) ([1]; mouse liver microsomes): 0.864 and 0.883
- MLM t1/2 (UNC) ([1]; mouse liver microsomes): 8.3 min
- CLint scaled ([1]; mouse, liver microsomes): 569 mL/min/kg
- half-life ([1]; mouse, liver microsomes, read-out: MLM t1/2 (UNC)): 9.87 min
- CLint scaled [2]: 142 mL/min/kg
- RLM E (UNC) [2]: 0.669
- half-life ([2]; read-out: RLM t1/2 (UNC)): 17.7 min
- solubility kinetic at 30 min ([3]; 0.01 M HCl, simulated gastric fluid, pH 2.0, read-out: Sol (pH 2.0) (Monash)): > 100 µg/mL
- solubility kinetic at 30 min ([3]; pH 6.5 phosphate buffer, pH 6.5, aqueous buffer, read-out: Sol (pH 6.5) (Monash)): 50 to 100 µg/mL (≈ 164 to 328 µM)
- HLM Clint (Monash) ([4]; Monash): 28 µL/min/mg
- HLM t1/2 (Monash) ([4]; Monash): 62 min
- MIC ([5]; UCL, read-out: MRSA MIC (UCL)): 32 µg/mL (≈ 105 µM)
- chromatographic logD ([6]; gradient HPLC retention against standard compounds, pH 7.4): 1.5
- RLM Clint (Monash) ([7]; Monash): 59 µL/min/mg
- RLM t1/2 (Monash) ([7]; Monash): 29 min
Compound: c1ccc(-c2nc3n(c2-c2ccc4c(c2)OCO4)CCC3)nc1 [OSA_000812]

- fraction unbound [9]: 0.028
- chromatographic logD [10]: 3.1
- hepatocyte CLint [11]: 23.9 µL/min/1e6 cells
- MIC ([5]; UCL, read-out: MRSA MIC (UCL)): 8 µg/mL (≈ 26.5 µM)
- solubility [12]: 79 µM (≈ 23.8 µg/mL)
- MIC [14]: 32 µg/mL (≈ 106 µM)
- microsomal CLint [16]: 224 µL/min/mg
Compound: COc1ccn2c(-c3ccccc3)c(-c3ccccn3)nc2c1 [OSA_000860]
- MRC5 TC50 [8]: 3.92 µM
- PMM TC50 [13]: 8 µM
- U2OS TC50 [15]: 0.73 µM
- THP1 TC50 [17]: 5.01 µM

- Sol 6.5 ([3]; pH 6.5 phosphate buffer): 50 to 100 µg/mL
- microsomal CLint at 1 µM [4, 23]: 28 µL/min/mg
- half-life at 1 µM ([4]; NADPH, read-out: T1/2): 62 min
- MIC ([5]; 16 h, read-out: MRSA MIC): > 32 µg/mL
- MIC ([5]; read-out: MRSA MIC): 32 µg/mL (≈ 105 µM)
- gLogD at pH 7.4 [6]: 1.5
- microsomal CLint at 1 µM [7, 23]: 59 µL/min/mg
- half-life at 1 µM ([7]; NADPH, read-out: T1/2): 29 min
Compound: c1ccc(-c2nc3n(c2-c2ccc4c(c2)OCO4)CCC3)nc1 [compound 812]
- inhibition of p38 kinase [18]: no inhibition
- activity against MRSA, in words [5]: MRSA-inactive

Compound: Colistin - Sulfate
- MIC Acinetobacter baumannii [19]: 0.25 µg/mL
- MIC Pseudomonas aeruginosa [20]: 0.25 µg/mL
- MIC Klebsiella [21]: 0.25 µg/mL
- MIC Escherichia coli [22]: 0.125 µg/mL
